The values that follow come from patent US10227331B2 (priority 2015, dated 2019).

SMILES strings stand for the structures.

The target in one series is NDM-1 (Klebsiella pneumoniae, UniProt C7C422). In words: biochemical. The class given is biochemical. As to conditions: CCF2-FA substrate, 2 hours at 25° C; read-out: NDM-1 IC50. The gist of the method: (§1)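 IC50 values derive from 4-parameter fits of percent inhibition against inhibitor concentration on semi-log axes. Activity was monitored by fluorescence with the CCF2-FA substrate after a 2-hour, 25° C incubation of compound, enzyme and substrate.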
NDM-1, sequence (C7C422 whole entry, looked up, species assumed): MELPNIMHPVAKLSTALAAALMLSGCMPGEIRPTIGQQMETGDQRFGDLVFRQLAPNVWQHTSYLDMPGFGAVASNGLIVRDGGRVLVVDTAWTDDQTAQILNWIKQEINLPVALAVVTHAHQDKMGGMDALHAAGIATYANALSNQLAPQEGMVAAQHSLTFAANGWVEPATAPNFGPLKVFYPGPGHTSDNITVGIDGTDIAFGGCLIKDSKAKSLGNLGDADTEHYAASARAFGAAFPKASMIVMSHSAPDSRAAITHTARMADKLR

The target of another series is IMP-1 (Serratia marcescens, UniProt P52699). Put plainly: biochemical. The format is biochemical. As to conditions: CCF2-FA substrate, 2 hours at 25° C; read-out: IMP-1 IC50. The method in brief: as §1
IMP-1, sequence (P52699 whole entry, looked up, species assumed): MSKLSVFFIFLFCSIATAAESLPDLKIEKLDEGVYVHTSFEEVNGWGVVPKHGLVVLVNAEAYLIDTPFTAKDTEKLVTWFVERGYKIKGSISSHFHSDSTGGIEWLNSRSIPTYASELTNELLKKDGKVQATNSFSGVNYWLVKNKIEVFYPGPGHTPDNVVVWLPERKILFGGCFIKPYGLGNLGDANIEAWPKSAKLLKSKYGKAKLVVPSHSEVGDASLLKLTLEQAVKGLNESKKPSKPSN
The subject of series [1] is P. aeruginosa expressing IMP-1, efflux− (MB9799). Put plainly: Efflux: concentration of MBL inhibitor which restores susceptibility to imipenem. The class given is cell-based, Pseudomonas aeruginosa. The conditions noted are these: imipenem at 2 μg/mL, in the presence of a class A, C, D serine β-lactamase inhibitor closely related to relebactam. From the text:
(§2) The strain background is Pseudomonas aeruginosa PAO1.

The test system of series [2] is P. aeruginosa expressing IMP-1, efflux+ (MB9798). The format is cell-based, Pseudomonas aeruginosa. As to conditions: for P. aeruginosa expressing IMP-1, efflux+ (MB9798) MITC95: imipenem at 2 μg/mL, in the presence of a class A, C, D serine β-lactamase inhibitor closely related to relebactam; for Efflux ratio: ratio MITC95 PA_9798/MITC95 PA_9799.
Description: as §2

For series [3], the system named is Klebsiella pneumoniae expressing VIM-1 (IHMA599644). The class given is cell-based. As to conditions: with imipenem 1 μg/ml; 95% inhibition of bacterial growth. The method in brief:
(§3)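 Restoration of imipenem susceptibility (1 μg/ml imipenem) was judged by absorbance after 22–24 h at 35° C. Test compound was added to bacteria suspended 1:100 in 1.1× CAMHB from overnight blood-agar cultures.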

In series [4] the test system is Escherichia coli expressing NDM-1 (CLB30005, CLB30016). The class given is cell-based. The conditions noted are these: with imipenem 1 μg/ml; 95% inhibition of bacterial growth. The method in brief: as §3
In series [5] the test system is Serratia marcescens expressing IMP-1 (CL5741). The class given is cell-based. The conditions noted are these: with imipenem 1 μg/ml; 95% inhibition of bacterial growth. The gist of the method:
as §3

A further series addresses VIM-1 (Pseudomonas aeruginosa (strain ATCC 15692 / DSM 22644 / CIP 104116 / JCM 14847 / LMG 12228 / 1C / PRS 101 / PAO1), UniProt A0A0F7KYQ8). In words: biochemical. The conditions noted are these: CCF2-FA substrate, 2 hours at 25° C. The method in brief:
as §1

`NCCS(=O)(=O)c1ccc(-c2ccc3scnc3c2)c(-c2nnn[nH]2)c1S(N)(=O)=O.O=C(O)C(F)(F)F` [Example 174, 2-((4-(benzo[d]thiazol-5-yl)-2-sulfamoyl-3 (1H-tetrazol-5-yl)phenyl)sulfonyl)ethanaminium 2,2,2-trifluoroacetate]: the IC50 – broadly, the concentration that gives 50% inhibition – at NDM-1 was found to be 392 pM; at IMP-1 it was 220 pM; against VIM-1 it was 140 pM. For the same molecule, in series [1], the “P. aeruginosa expressing IMP-1, efflux− (MB9799) MITC95” value turned out to be 0.3906 µM. Moreover, in series [2], the “P. aeruginosa expressing IMP-1, efflux+ (MB9798) MITC95” value came to 3.125 µM. Moreover, the Efflux ratio in series [2] is 8.00. Besides, in series [3], the “Klebsiella pneumoniae expressing VIM-1 (IHMA599644) MITC95” value came to 1.563 µM. Moreover, the “Escherichia coli expressing NDM-1 (CLB30016) MITC95” value in series [4] came out at 0.3906 µM. In addition, the “Serratia marcescens expressing IMP-1 (CL5741) MITC95” value in series [5] was 0.7813 µM.
Regarding `Nc1nc2c(-c3ccc(S(=O)(=O)C4CNC4)c(S(N)(=O)=O)c3-c3nn[nH]n3)ccc(C(F)(F)F)c2s1` [Example 34, 3-(2-amino-7-(trifluoromethyl)benzo[d]thiazol-4-yl)-6-(azetidin-3-ylsulfonyl)-2-(2H-tetrazol-5-yl)benzenesulfonamide], the results for the 50% inhibitory concentration (IC50) at NDM-1, on IMP-1 and at VIM-1 were 71.3 pM, 229 pM and 175 pM, respectively. Besides, the “P. aeruginosa expressing IMP-1, efflux− (MB9799) MITC95” value in series [1] worked out at 0.7813 µM. The “P. aeruginosa expressing IMP-1, efflux+ (MB9798) MITC95” value in series [2] was 6.25 µM. Moreover, the Efflux ratio in series [2] is reported as 8.00. For the same molecule, the “Klebsiella pneumoniae expressing VIM-1 (IHMA599644) MITC95” value in series [3] was 1.563 µM. Moreover, the “Escherichia coli expressing NDM-1 (CLB30016) MITC95” value in series [4] was 0.7813 µM. In addition, in series [5], the “Serratia marcescens expressing IMP-1 (CL5741) MITC95” value was determined as 0.7813 µM.
Regarding `CNC(=O)c1ccc(-c2ccc(S(=O)(=O)CCN)c(S(N)(=O)=O)c2-c2nnn[nH]2)cn1.O=C(O)C(F)(F)F` [Example 139, 2-((4-(6-(methylcarbamoyl)pyridin-3-yl)-2-sulfamoyl-3-(1H-tetrazol-5-yl)phenyl)sulfonyl)ethanaminium 2,2,2-trifluoroacetate], the IC50 on NDM-1 turned out to be 3960 pM; at IMP-1, 3320 pM; against VIM-1 it was 2040 pM. For the same molecule, in series [1], the “P. aeruginosa expressing IMP-1, efflux− (MB9799) MITC95” value turned out to be 1.563 µM. Also, the “P. aeruginosa expressing IMP-1, efflux+ (MB9798) MITC95” value in series [2] is 12.5 µM. In series [2], the Efflux ratio came to 8.00. The “Klebsiella pneumoniae expressing VIM-1 (IHMA599644) MITC95” value in series [3] was found to be 6.25 µM. In addition, the “Escherichia coli expressing NDM-1 (CLB30016) MITC95” value in series [4] came to 1.563 µM. Further, the “Serratia marcescens expressing IMP-1 (CL5741) MITC95” value in series [5] worked out at 3.125 µM.
For `Cc1n[nH]c2ccc(-c3ccc(S(=O)(=O)C4CNC4)c(S(N)(=O)=O)c3-c3nnn[nH]3)cc12.O=C(O)C(F)(F)F` [Example 126, 3-((4-(3-methyl-1H-indazol-5-yl)-2-sulfamoyl-3-(1H-tetrazol-5-yl)phenyl)sulfonyl)azetidin-1-ium 2,2,2-trifluoroacetate], the half-maximal inhibitory concentration (IC50) at NDM-1 came out at 428 pM; at IMP-1 it was 715 pM; against VIM-1, 477 pM. Besides, in series [1], the “P. aeruginosa expressing IMP-1, efflux− (MB9799) MITC95” value is 1.563 µM. The “P. aeruginosa expressing IMP-1, efflux+ (MB9798) MITC95” value in series [2] turned out to be 12.5 µM. In addition, the Efflux ratio in series [2] is reported as 8.00. Moreover, the “Klebsiella pneumoniae expressing VIM-1 (IHMA599644) MITC95” value in series [3] worked out at 6.25 µM. Also, in series [4], the “Escherichia coli expressing NDM-1 (CLB30016) MITC95” value was 3.125 µM. In addition, the “Serratia marcescens expressing IMP-1 (CL5741) MITC95” value in series [5] is 6.25 µM.
Take `NS(=O)(=O)c1c(S(=O)(=O)[C@H]2CCNC2)ccc(-c2cccc3cn[nH]c23)c1-c1nn[nH]n1` [Example 186, 3-(1H-indazol-7-yl)-6-((S)-pyrrolidin-3-ylsulfonyl)-2-(2H-tetrazol-5-yl)benzenesulfonamide]: the IC50 on NDM-1 amounted to 246 pM; at IMP-1, 541 pM; against VIM-1 it was 228 pM. In addition, the “P. aeruginosa expressing IMP-1, efflux− (MB9799) MITC95” value in series [1] was 0.7813 µM. Also, the “P. aeruginosa expressing IMP-1, efflux+ (MB9798) MITC95” value in series [2] is 1.563 µM. For the same molecule, in series [2], the Efflux ratio stood at 2.00. Also, the “Klebsiella pneumoniae expressing VIM-1 (IHMA599644) MITC95” value in series [3] stood at 1.563 µM. Further, in series [4], the “Escherichia coli expressing NDM-1 (CLB30016) MITC95” value came out at 1.563 µM. Besides, the “Serratia marcescens expressing IMP-1 (CL5741) MITC95” value in series [5] is 1.563 µM.
Take `Cn1cc2cc(-c3ccc(S(=O)(=O)CCN)c(S(N)(=O)=O)c3-c3nnn[nH]3)ccc2n1.O=C(O)C(F)(F)F` [Example 153, 2-((4-(2-methyl-2H-indazol-5-yl)-2-sulfamoyl-3-(1H-tetrazol-5-yl)phenyl)sulfonyl)ethanaminium 2,2,2-trifluoroacetate]: the IC50 on NDM-1 is 593 pM; on IMP-1, 457 pM; on VIM-1 it was 309 pM. Moreover, in series [1], the “P. aeruginosa expressing IMP-1, efflux− (MB9799) MITC95” value was 1.563 µM. Further, the “P. aeruginosa expressing IMP-1, efflux+ (MB9798) MITC95” value in series [2] is 6.25 µM. In addition, the Efflux ratio in series [2] is 4.00. Also, the “Klebsiella pneumoniae expressing VIM-1 (IHMA599644) MITC95” value in series [3] was found to be 3.125 µM. Also, the “Escherichia coli expressing NDM-1 (CLB30016) MITC95” value in series [4] came out at 1.563 µM. Besides, the “Serratia marcescens expressing IMP-1 (CL5741) MITC95” value in series [5] is 3.125 µM.
